Measured values published in patent publication US9783556B2, “Kinase inhibitors” (RESPIVERT LIMITED, priority 2012, dated 2017).
Where two headings read alike, the source gives them in different places.

Legend:
HT29 cells = assay: IL-1β-induced IL-8 release in HT29 cells; format: cell-based; conditions: Homo sapiens, HT-29, IL-1β-stimulated HT29 cells, read-out: IC50 Values for Inhibition of Cytokine Release HT29 cells IL-8
Method: HT29 cells, a human colon adenocarcinoma cell line, are plated in a 96 well plate (24 hrs) and pre-treated with compounds at the desired concentration for 2 hours before addition of 5 ng/mL of IL-1β (Abcam) for 24 hours. Supernatants are harvested for IL-8 quantification by Sandwich ELISA (Duo-set, R&D System). The IC50 is determined from the dose response curve.

PBMCs [1] = assay: LPS-induced TNFα/IL-8 release in PBMC cells; format: cell-based; conditions: Homo sapiens, LPS-stimulated PBMCs
Method: Peripheral blood mononuclear cells (PBMCs) from healthy subjects are separated from whole blood using a density gradient (Lymphoprep, Axis-Shield Healthcare). The PBMCs are seeded in 96 well plates and treated with compounds at the desired concentration for 2 hours before addition of 1 ng/mL LPS (Escherichia Coli 0111:B4 from Sigma Aldrich) for 24 hours under normal tissue culture conditions (37° C., 5% CO2). The supernatant is harvested for determination of IL-8 and TNFα concentrations by sandwich ELISA (Duo-set, R&D systems) and read on the fluorescence microplate reader (Varioskan® Flash, ThermoFisher Scientific). The concentration at 50% inhibition (IC50) of IL-8 and TNFα production is calculated from the dose response curve.

GSK 3α = GSK 3α (Homo sapiens (Human), UniProt P49840); assay: GSK 3α enzyme inhibition (Z-LYTE FRET); format: biochemical; conditions: read-out: IC50 Values for Enzyme Inhibition GSK3α
GSK 3α, sequence (P49840 whole entry): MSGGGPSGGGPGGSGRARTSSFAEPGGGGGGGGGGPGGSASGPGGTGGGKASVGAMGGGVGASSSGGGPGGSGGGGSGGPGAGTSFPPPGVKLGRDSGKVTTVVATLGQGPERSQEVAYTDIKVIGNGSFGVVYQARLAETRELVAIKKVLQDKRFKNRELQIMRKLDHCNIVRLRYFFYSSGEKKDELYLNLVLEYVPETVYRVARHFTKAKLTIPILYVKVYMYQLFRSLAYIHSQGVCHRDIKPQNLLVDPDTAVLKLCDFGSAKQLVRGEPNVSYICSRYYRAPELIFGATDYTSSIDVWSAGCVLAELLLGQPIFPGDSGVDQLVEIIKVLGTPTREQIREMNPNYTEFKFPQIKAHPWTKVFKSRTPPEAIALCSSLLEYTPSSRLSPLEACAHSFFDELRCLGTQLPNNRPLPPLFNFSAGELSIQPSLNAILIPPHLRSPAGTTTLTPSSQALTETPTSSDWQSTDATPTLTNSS
Method: (§1) The enzyme inhibitory activities of compounds disclosed herein are determined by FRET using synthetic peptides labelled with both donor and acceptor fluorophores (Z-LYTE, Invitrogen Ltd., Paisley, UK).
The following two assay variants can be used for determination of GSK 3α inhibition.
The inhibitory activities of compounds of the invention against the GSK 3α enzyme isoform (Invitrogen), are evaluated by determining the level of activation/phosphorylation of the target peptide. The GSK3-α protein (500 ng/mL, 2.5 μL) is mixed with the test compound (2.5 μL at either 4 μg/mL, 0.4 μg/mL, 0.04 μg/mL, or 0.004 μg/mL) for 2 hr at RT. The FRET peptide (8 μM, 2.5 μL), which is a phosphorylation target for GSK3α, and ATP (40 μM, 2.5 μL) are then added to the enzyme/compound mixture and the resulting mixture incubated for 1 hr. Development reagent (protease, 5 μL) is added for 1 hr prior to detection in a fluorescence microplate reader (Varioskan® Flash, ThermoFisher Scientific).
(§2) In all cases, the site-specific protease cleaves non-phosphorylated peptide only and eliminates the FRET signal. Phosphorylation levels of each reaction are calculated using the ratio of coumarin emission (donor) over fluorescein emission (acceptor), for which high ratios indicate high phosphorylation and low ratios indicate low phosphorylation levels. The percentage inhibition of each reaction is calculated relative to non-inhibited control and the 50% inhibitory concentration (IC50 value) is then calculated from the concentration-response curve.
This method follows the same steps as Method 1 above, but utilises a shorter period of mixing of the test compound (105 minutes instead of 2 hours) with the GSK3-α protein.

[2] = molecular target: p38 MAPKα isoform (MAPK14) (Homo sapiens (Human), UniProt Q16539); assay: p38 MAPKα enzyme inhibition (Z-LYTE FRET); format: biochemical
p38 MAPKα isoform (MAPK14), sequence (Q16539 whole entry, canonical isoform): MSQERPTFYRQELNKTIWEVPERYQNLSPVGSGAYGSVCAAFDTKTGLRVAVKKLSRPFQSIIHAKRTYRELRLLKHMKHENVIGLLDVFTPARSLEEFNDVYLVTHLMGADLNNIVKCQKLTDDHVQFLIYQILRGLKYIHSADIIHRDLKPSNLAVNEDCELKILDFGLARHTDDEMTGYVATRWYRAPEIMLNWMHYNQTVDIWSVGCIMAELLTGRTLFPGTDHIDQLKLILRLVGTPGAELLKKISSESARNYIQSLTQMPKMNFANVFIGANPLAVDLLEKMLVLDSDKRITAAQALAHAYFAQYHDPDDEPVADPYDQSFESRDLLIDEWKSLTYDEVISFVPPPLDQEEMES
Method: as §1
The following two assay variants can be used for determination of p38 MAPKα inhibition.
The inhibitory activities of test compounds against the p38 MAPKα isoform (MAPK14: Invitrogen), are evaluated indirectly by determining the level of activation/phosphorylation of the down-stream molecule, MAPKAP-K2. The p38 MAPKα protein (80 ng/mL, 2.5 μL) is mixed with the test compound (2.5 μL of either 4 μg/mL, 0.4 μg/mL, 0.04 μg/mL or 0.004 μg/mL) for 2 hr at RT. […] The mixture is incubated for 1 hr at RT. Development reagent (protease, 5 μL) is added for 1 hr prior to detection in a fluorescence microplate reader (Varioskan® Flash, ThermoFisher Scientific).
This method follows the same steps as Method 1 above, but utilises a higher concentration of the p38 MAPKα protein (2.5 μL of 200 ng/mL protein instead of 2.5 μL of 80 ng/mL protein) for mixing with the test compound.
as §2

d-U937 cells = assay: LPS-induced TNFα/IL-8 release in d-U937 cells; format: cell-based; conditions: Homo sapiens, dU937, LPS-stimulated d-U937 cells
Method: U937 cells, a human monocytic cell line, are differentiated to macrophage-type cells by incubation with phorbol myristate acetate (PMA; 100 ng/mL) for 48 to 72 hr. Cells are pre-incubated with final concentrations of test compound for 2 hr and are then stimulated with 0.1 μg/mL of LPS (from E. Coli: O111:B4, Sigma) for 4 hr. The supernatant is collected for determination of TNFα and IL-8 concentrations by sandwich ELISA (Duo-set, R&D systems). The inhibition of TNFα production is calculated as a percentage of that achieved by 10 μg/mL of BIRB796 at each concentration of test compound by comparison against vehicle control. The relative 50% effective concentration (REC50) is determined from the resultant concentration-response curve. The inhibition of IL-8 production is calculated at each concentration of test compound by comparison with vehicle control. The 50% inhibitory concentration (IC50) is determined from the resultant concentration-response curve.

c-Src = c-Src (Homo sapiens (Human), UniProt P12931); assay: c-Src enzyme inhibition (Z-LYTE FRET); format: biochemical
c-Src, sequence (P12931 whole entry, looked up): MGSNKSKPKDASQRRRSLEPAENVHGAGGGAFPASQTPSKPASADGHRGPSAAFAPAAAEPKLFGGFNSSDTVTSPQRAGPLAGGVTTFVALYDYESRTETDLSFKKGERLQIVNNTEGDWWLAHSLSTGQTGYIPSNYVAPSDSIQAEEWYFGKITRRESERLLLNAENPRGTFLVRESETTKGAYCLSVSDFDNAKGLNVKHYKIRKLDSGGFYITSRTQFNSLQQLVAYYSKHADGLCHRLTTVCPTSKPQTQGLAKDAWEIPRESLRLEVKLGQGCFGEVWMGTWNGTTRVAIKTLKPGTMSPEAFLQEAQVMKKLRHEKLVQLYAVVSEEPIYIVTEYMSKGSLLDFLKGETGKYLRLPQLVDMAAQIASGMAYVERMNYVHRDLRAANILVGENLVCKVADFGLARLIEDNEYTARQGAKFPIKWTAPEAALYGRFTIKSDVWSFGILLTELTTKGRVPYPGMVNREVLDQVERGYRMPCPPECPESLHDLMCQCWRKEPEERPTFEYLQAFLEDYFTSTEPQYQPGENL
Method: as §1
(§3) The inhibitory activities of compounds of the invention against c-Src and Syk enzymes (Invitrogen), are evaluated in a similar fashion to that described hereinabove. The relevant enzyme (3000 ng/mL or 2000 ng/mL respectively, 2.5 μL) is incubated with the test compound (either 4 μg/mL, 0.4 μg/mL, 0.04 μg/mL, or 0.004 μg/mL, 2.5 μL each) for 2 hr at RT. The FRET peptides (8 μM, 2.5 μL), and appropriate ATP solutions (2.5 μL, 800 μM for c-Src, and 60 μM ATP for Syk) are then added to the enzymes/compound mixtures and incubated for 1 hr. Development reagent (protease, 5 μL) is added for 1 hr prior to detection in a fluorescence microplate reader (Varioskan® Flash, ThermoFisher Scientific).
as §2

PBMCs [3] = assay: IL-2 and IFN gamma release in CD3/CD28 stimulated PBMC cells; format: cell-based; conditions: Homo sapiens, IL-2, read-out: IC50 Values for Inhibition of Cytokine Release PBMCs IL-2
Method: PBMCs from healthy subjects are separated from whole blood using a density gradient (Lymphoprep, Axis-Shield Healthcare). Cells are added to a 96 well plate pre-coated with a mixture of CD3/CD38 monoclonal antibodies (0.3 μg/mL eBioscience and 3 μg/mL BD Pharmingen respectively). Compound at the desired concentration is then added to the wells and the plate left for 3 days under normal tissue culture conditions. Supernatants are harvested and IL-2 and IFN gamma release determined by Sandwich ELISA (Duo-set, R&D System). The IC50 is determined from the dose response curve.

Syk = Syk (Homo sapiens (Human), UniProt P43405); assay: Syk enzyme inhibition (Z-LYTE FRET); format: biochemical
Method: as §1, §3, §2

[4] = IL-8, read-out: IC50 Values for Inhibition of Cytokine Release PBMCs IL-8
[5] = TNFα, read-out: IC50 Values for Inhibition of Cytokine Release PBMCs TNFα
[6] = IL-8, read-out: IC50 Values for Inhibition of Cytokine Release dU937 cells IL-8
[7] = TNFα, method describes REC50 relative to BIRB796, read-out: IC50 Values for Inhibition of Cytokine Release dU937 cells TNFα

SMILES: Cc1ccc(-n2nc([Si](C)(C)C)cc2NC(=O)Nc2ccc(Oc3ccnc(Nc4ccccc4)n3)c3ccccc23)cc1 [Example 1, 1-(4-((2-(Phenylamino)pyrimidin-4-yl)oxy)naphthalen-1-yl)-3-(1-(p-tolyl)-3-(trimethylsilyl)-1H-pyrazol-5-yl)urea]
- IC50 (HT29 cells): 15.6 nM
- IC50 (PBMCs [1]; [4]): 14.2 nM
- IC50 (PBMCs [1]; [5]): 2.8 nM
- IC50 (GSK 3α): > 10000 nM
- IC50 [2]: 152 nM
- IC50 (d-U937 cells; [6]): 4.6 nM
- IC50 (d-U937 cells; [7]): 2.5 nM
- IC50 (c-Src): 77 nM
- IC50 (PBMCs [3]): 274 nM
- IC50 (Syk): > 1000 nM

SMILES: COc1ccc(-n2nc([Si](C)(C)C)cc2NC(=O)Nc2ccc(Oc3ccnc(Nc4ccccc4)n3)c3ccccc23)cn1 [Example 2, 1-(1-(6-Methoxypyridin-3-yl)-3-(trimethylsilyl)-1H-pyrazol-5-yl)-3-(4-((2-(phenylamino)pyrimidin-4-yl)oxy)naphthalen-1-yl)urea]
- IC50 (HT29 cells): 12.1 nM
- IC50 (PBMCs [1]; [4]): 8.4 nM
- IC50 (PBMCs [1]; [5]): 2.7 nM
- IC50 (GSK 3α): 3240 nM
- IC50 [2]: 329 nM
- IC50 (d-U937 cells; [6]): 2.6 nM
- IC50 (d-U937 cells; [7]): 1.8 nM
- IC50 (c-Src): 93 nM
- IC50 (PBMCs [3]): 128 nM
- IC50 (Syk): > 1000 nM

SMILES: C[Si](C)(C)c1cc(NC(=O)Nc2ccc(Oc3ccnc(Nc4ccccc4)n3)c3ccccc23)n(-c2ccc(OCCN3CCOCC3)cc2)n1 [Example 3, 1-(1-(4-(2-Morpholinoethoxy)phenyl)-3-(trimethylsilyl)-1H-pyrazol-5-yl)-3-(4-((2-(phenylamino)pyrimidin-4-yl)oxy)naphthalen-1-yl)urea]
- IC50 (HT29 cells): 13.4 nM
- IC50 (PBMCs [1]; [4]): 9.4 nM
- IC50 (GSK 3α): 4990 nM
- IC50 [2]: 347 nM
- IC50 (d-U937 cells; [6]): 18 nM
- IC50 (d-U937 cells; [7]): 2 nM
- IC50 (c-Src): 227 nM
- IC50 (PBMCs [3]): 76.8 nM
- IC50 (Syk): > 1000 nM

SMILES: Cc1ccc(-n2nc([Si](C)(C)C)cc2NC(=O)Nc2ccc(Oc3ccnc(Nc4cccc(OCCN5CCOCC5)c4)n3)c3ccccc23)cc1 [Example 6, 1-(4-((2-((3-(2-Morpholinoethoxy)phenyl)amino)pyrimidin-4-yl)oxy)naphthalen-1-yl)-3-(1-(p-tolyl)-3-(trimethylsilyl)-1H-pyrazol-5-yl)urea]
- IC50 (HT29 cells): 8.7 nM
- IC50 (PBMCs [1]; [4]): 4.8 nM
- IC50 (PBMCs [1]; [5]): 0.7 nM
- IC50 (GSK 3α): > 2000 nM
- IC50 [2]: 314 nM
- IC50 (d-U937 cells; [6]): 1.8 nM
- IC50 (d-U937 cells; [7]): 1.5 nM
- IC50 (c-Src): 10 nM
- IC50 (PBMCs [3]): 15.7 nM
- IC50 (Syk): 7 nM

SMILES: Cc1ccc(-n2nc([Si](C)(C)C)cc2NC(=O)Nc2ccc(Oc3ccnc(Nc4ccc5[nH]ncc5c4)n3)c3ccccc23)cc1 [Example 7, 1-[4-[2-(1H-Indazol-5-ylamino)pyrimidin-4-yl]oxy-1-naphthyl]-3-[2-(p-tolyl)-5-trimethylsilyl-pyrazol-3-yl]urea]
- IC50 (HT29 cells): 16.6 nM
- IC50 (PBMCs [1]; [4]): 12 nM
- IC50 (PBMCs [1]; [5]): 3.3 nM
- IC50 (GSK 3α): > 10000 nM
- IC50 [2]: 380 nM
- IC50 (d-U937 cells; [6]): 8.6 nM
- IC50 (d-U937 cells; [7]): 1.9 nM
- IC50 (c-Src): 45 nM
- IC50 (PBMCs [3]): 47.5 nM
- IC50 (Syk): 673 nM

SMILES: Cc1ccc(-n2nc([Si](C)(C)C)cc2NC(=O)Nc2ccc(Oc3ccnc(Nc4cc(C)c5[nH]ncc5c4)n3)c3ccccc23)cc1 [Example 9, 1-(4-((2-((7-Methyl-1H-indazol-5-yl)amino)pyrimidin-4-yl)oxy)naphthalen-1-yl)-3-(1-(p-tolyl)-3-(trimethylsilyl)-1H-pyrazol-5-yl)urea]
- IC50 (HT29 cells): 4.8 nM
- IC50 (PBMCs [1]; [4]): 3.4 nM
- IC50 (GSK 3α): > 10000 nM
- IC50 [2]: 358 nM
- IC50 (d-U937 cells; [6]): 2.6 nM
- IC50 (d-U937 cells; [7]): 1.2 nM
- IC50 (c-Src): 135 nM
- IC50 (PBMCs [3]): 41.2 nM
- IC50 (Syk): 520 nM

SMILES: Cc1ccc(-n2nc([Si](C)(C)C)cc2NC(=O)Nc2ccc(Oc3ccnc(Nc4ccc5c(c4)NC(=O)C5)n3)c3ccccc23)cc1 [Example 10, 1-(4-((2-((2-Oxoindolin-6-yl)amino)pyrimidin-4-yl)oxy)naphthalen-1-yl)-3-(1-(p-tolyl)-3-(trimethylsilyl)-1H-pyrazol-5-yl)urea]
- IC50 (HT29 cells): 5 nM
- IC50 (PBMCs [1]; [4]): 3.5 nM
- IC50 (GSK 3α): > 10000 nM
- IC50 [2]: 541 nM
- IC50 (d-U937 cells; [6]): 2 nM
- IC50 (d-U937 cells; [7]): 1.6 nM
- IC50 (c-Src): 19 nM
- IC50 (PBMCs [3]): 196 nM
- IC50 (Syk): 990 nM

SMILES: COc1cc(Nc2nccc(Oc3ccc(NC(=O)Nc4cc([Si](C)(C)C)nn4-c4ccc(C)cc4)c4ccccc34)n2)cc(OCCN2CCOCC2)c1 [Example 13, 1-(4-((2-((3-Methoxy-5-(2-morpholinoethoxy)phenyl)amino)pyrimidin-4-yl)oxy)naphthalen-1-yl)-3-(1-(p-tolyl)-3-(trimethylsilyl)-1H-pyrazol-5-yl)urea]
- IC50 (HT29 cells): 4.3 nM
- IC50 (PBMCs [1]; [4]): 2.3 nM
- IC50 (GSK 3α): 5640 nM
- IC50 [2]: > 1000 nM
- IC50 (d-U937 cells; [6]): 1.4 nM
- IC50 (d-U937 cells; [7]): 1.1 nM
- IC50 (c-Src): 170 nM
- IC50 (PBMCs [3]): 3.9 nM
- IC50 (Syk): 106 nM
